The values below come from patent US8394825B2, “Compound” (Sterix Limited, priority 2007, dated 2013).

As a reminder, the GI50 is the concentration giving 50% growth inhibition. What is called melting point is the temperature, or range, at which the solid turns liquid.

For one data set, the system named is DU145 cells. The data set is described as follows: Antiproliferative assay in DU145 cells, WST-1 cell proliferation assay, 96 hours (GI50). In kind it is cell-based. The settings on record: triplicate. On the procedure:
Antiproliferative assays. DU145 cells were seeded into 96 well microtiter plates (5000 cells/well) and treated with […] of compounds or with vehicle control. At 96 hours post-treatment, live cell counts were determined by WST-1 cell proliferation assay (Roche, Penzberg, Germany), as per manufacturer's instructions. Viability results were expressed as a percentage of mean control values resulting in the calculation of the 50% growth inhibition (GI50). All experiments were performed in triplicate.
(In general: Tetrazolium assays rely on reduction of a dye to a coloured formazan, in cell work by metabolically active cells.)

[1] abbreviates: Homo sapiens, DU-145, 96 hours post-treatment.

Read-outs that look alike come from different tables or passages of the source.

With `COc1ccc(OC)c(CN2CCc3cc(OCc4ccccc4)c(OC)cc3C2)c1` [compound 21, 6-Benzyloxy-7-methoxy-2-(2,5-dimethoxybenzyl)-1,2,3,4-tetrahydroisoquinoline], the concentration for 50% growth inhibition (GI50) with DU145 cells (setting [1]) fell in the range of 10 to 50 µM.

In turn, `COc1cc2c(cc1O)CCN(Cc1cccc(C)c1)C2` [compound 44, 6-Hydroxy-7-methoxy-2-(3-methylbenzyl)-1,2,3,4-tetrahydroisoquinoline] showed a concentration for 50% growth inhibition (GI50) in the data set with DU145 cells (setting [1]) of over 100 µM. Molecule `COc1ccc(CCN2CCc3cc(O)c(OC)cc3C2)cc1` [compound 46, 6-Hydroxy-7-methoxy-2-(4-methoxyphenethyl)-1,2,3,4-tetrahydroisoquinoline] registered a melting point of 170 to 171 °C. On the same count and under the same terms, the result for `COc1cc2c(cc1O)CCN(Cc1cccnc1)C2` [compound 47, 6-Hydroxy-7-methoxy-2-(pyridin-3-ylmethyl)-1,2,3,4-tetrahydroisoquinoline] reads 165 to 166 °C. Same read-out and setting: the result for `COc1cc2c(cc1O)CCN(Cc1ccccn1)C2` [compound 48, 6-Hydroxy-7-methoxy-2-(pyridin-2-ylmethyl)-1,2,3,4-tetrahydroisoquinoline] reads 137 to 138 °C. As to `COc1cc2c(cc1O)CCN(Cc1cccc(NC(C)=O)c1)C2` [compound 50, 6-Hydroxy-7-methoxy-2-(3-acetamidobenzyl)-1,2,3,4-tetrahydroisoquinoline], in the data set with DU145 cells (setting [1]), the 50% growth inhibitory concentration (GI50) was over 100 µM. The molecule `COc1cc2c(cc1O)CCN(Cc1cccc(OC(C)=O)c1)C2` [compound 51, 6-Hydroxy-7-methoxy-2-(3-acetoxybenzyl)-1,2,3,4-tetrahydroisoquinoline] came in with a melting point of 120 to 122 °C.

`COc1cc2c(cc1O)CCN(Cc1cccc(NS(C)(=O)=O)c1)C2` [compound 52, 6-Hydroxy-7-methoxy-2-(3-methanesulfonylaminobenzyl)-1,2,3,4-tetrahydroisoquinoline] gave a melting point of 99 to 101 °C. On the same count and under the same terms, the result for `COc1cc2c(cc1O)CCN(CC(=O)c1ccc(OC)c(OC)c1)C2` [compound 53, 2-(2-(3,4-Dimethoxyphenyl)-2-oxoethyl)-6-hydroxy-7-methoxy-1,2,3,4-tetrahydroisoquinoline] reads 149 to 150 °C. On the same count and under the same terms, the result for `COc1cc2c(cc1O)CCN(Cc1cccc(C(C)=O)c1)C2` [compound 62, 6-Hydroxy-7-methoxy-2-(3-acetylbenzyl)-1,2,3,4-tetrahydroisoquinoline] reads 132 to 134 °C. As for `COc1cccc(CN2CCc3cc(OS(N)(=O)=O)c(OC)cc3C2)c1` [compound 72, 7-Methoxy-2-(3-methoxybenzyl)-6-O-sulfamoyl-1,2,3,4-tetrahydroisoquinoline], the GI50 in the data set on DU145 cells (96 hours post-treatment, read-out: DU-145 GI50) was under 10 µM. Regarding `COc1cc2c(cc1OS(N)(=O)=O)CCN(Cc1cccc(NS(C)(=O)=O)c1)C2` [compound 88, 7-Methoxy-2-(3-(methylsulfonamido)benzyl)-1,2,3,4-tetrahydroisoquinolin-6-yl sulfamate], the melting point was in the range of 151 to 152 °C. `COc1cc2c(cc1OCc1ccccc1)CCN(C(=O)c1cc(OC)c(OC)c(OC)c1)C2` [compound 111, 6-Benzyloxy-7-methoxy-2-(3,4,5-trimethoxybenzoyl)-1,2,3,4-tetrahydroisoquinoline] had a melting point of 63 to 64 °C. Turning to `COc1cccc(C(=O)N2CCc3cc(OCc4ccccc4)c(OC)cc3C2=O)c1` [compound 131, 6-Benzyloxy-7-methoxy-2-(3-methoxybenzoyl)-3,4-dihydro-2H-isoquinoline-1-one], the melting point was in the range of 141 to 143 °C. As to `COc1cc(OC)cc(C(=O)N2CCc3cc(OCc4ccccc4)ccc3C2=O)c1` [compound 132, 6-Benzyloxy-2-(3,5-dimethoxybenzoyl)-3,4-dihydro-2H-isoquinoline-1-one], the melting point is 158 to 159 °C.

For the molecule `COc1cc(OC)cc(C(=O)N2CCc3cc(O)ccc3C2=O)c1` [compound 137, 2-(3,5-Dimethoxybenzoyl)-6-hydroxy-3,4-dihydro-2H-isoquinoline-1-one], the melting point lay within 178 to 179 °C. Same read-out and setting: in the case of `COc1cc2c(cc1O)CC(C)N(Cc1cc(OC)c(OC)c(OC)c1)C2` (stereo not shown) [compound 219, 2-(3,4,5-Trimethoxybenzyl)-1,2,3,4-tetrahydro-7-methoxy-3-methylisoquinolin-6-ol] it was 127 to 132 °C; in that of `COc1cc2c(cc1O)CC(C)(C)N(Cc1cc(OC)c(OC)c(OC)c1)C2` [compound 229, 7-Methoxy-3,3-dimethyl-2-(3,4,5-trimethoxy-benzyl)-1,2,3,4-tetrahydro-isoquinolin-6-ol], 143 to 147 °C; in that of `COc1cc(OC)cc(C(=O)N2Cc3cc(OC)c(O)cc3CC2(C)C)c1` [compound 235, (3,4-Dihydro-6-hydroxy-7-methoxy-3,3-dimethylisoquinolin-2(1H)-yl)(3,5-dimethoxyphenyl)methanone], 163 to 166 °C. In the case of `COc1cc2c(cc1OCc1ccccc1)CC(C)(C)N(C(=O)c1cc(OC)c(OC)c(OC)c1)C2C` (stereo not shown) [compound 245, (6-(Benzyloxy)-3,4-dihydro-7-methoxy-1,3,3-trimethylisoquinolin-2(1H)-yl)-(3,4,5-trimethoxyphenyl)methanone], the melting point was 175 to 177 °C. Molecule `COc1cc2c(cc1O)CC(C)(C)N(C(=O)c1cc(OC)c(OC)c(OC)c1)C2C` (stereo not shown) [compound 246, (3,4-Dihydro-6-hydroxy-7-methoxy-1,3,3-trimethylisoquinolin-2(1H)-yl)(3,4,5-trimethoxyphenyl)methanone] yielded a melting point of 198 to 200 °C. `COc1cc2c(cc1OS(N)(=O)=O)CC(C)(C)N(C(=O)c1cc(OC)c(OC)c(OC)c1)C2C` (stereo not shown) [compound 247, Sulfamic acid 7-methoxy-1,3,3-trimethyl-2-(3,4,5-trimethoxy-benzoyl)-1,2,3,4-tetrahydro-isoquinolin-6-yl ester]: the melting point was 170 to 173 °C. `COc1cccc(CN2CCc3cc(O)c(OC)cc3C2C)c1` (stereo not shown) [compound 253, 2-(3-Methoxybenzyl)-1,2,3,4-tetrahydro-7-methoxy-1-methylisoquinolin-6-ol] showed a melting point of 97 to 99 °C. The same measure, in the same setting: in the case of `COc1cc2c(cc1OCc1ccccc1)CCC(=O)N2Cc1cc(OC)c(OC)c(OC)c1` [compound 289, 6-(Benzyloxy)-7-methoxy-1-(3,4,5-trimethoxybenzyl)-3,4-dihydro-1H-quinolin-2-one] it was 129 to 130 °C; in that of `COc1ccc(CN2C(=O)CCc3cc(O)c(OC)cc32)cc1` [compound 292, 6-Hydroxy-7-methoxy-1-(4-methoxybenzyl)-3,4-dihydro-1H-quinolin-2-one], 168 to 169 °C. Consider `COc1cc2c(cc1O)CCC(=O)N2Cc1cc(OC)c(OC)c(OC)c1` [compound 293, 6-Hydroxy-7-methoxy-1-(3,4,5-trimethoxybenzyl)-3,4-dihydro-1H-quinolin-2-one], for which the melting point fell in the range of 157 to 158 °C.

Molecule `COc1ccccc1CN1CCCc2cc(OCc3ccccc3)c(OC)cc2C1` [compound 302, 7-Benzyloxy-8-methoxy-2-(2-methoxybenzyl)-2,3,4,5-tetrahydro-1H-benzo[c]azepine] displayed a melting point of 105 to 106 °C. As for `COc1cccc(CC2CCCc3cc(OCc4ccccc4)c(OC)cc3N2)c1` (stereo not shown) [compound 303, 7-Benzyloxy-8-methoxy-2-(3-methoxybenzyl)-2,3,4,5-tetrahydro-1H-benzoazepine], the melting point was 92 to 93 °C. The same measure, in the same setting: in the case of `COc1ccc(CN2CCCc3cc(OCc4ccccc4)c(OC)cc3C2)cc1` [compound 304, 7-Benzyloxy-8-methoxy-2-(4-methoxybenzyl)-2,3,4,5-tetrahydro-1H-benzo[c]azepine] it was 87 to 88 °C; in that of `COc1cc2c(cc1OCc1ccccc1)CCCN(Cc1cc(OC)c(OC)c(OC)c1)C2` [compound 305, 7-Benzyloxy-8-methoxy-2-(3,4,5-trimethoxybenzyl)-2,3,4,5-tetrahydro-1H-benzo[c]azepine], 44 to 46 °C; in that of `COc1cc2c(cc1O)CCCN(Cc1ccccc1OC)C2` [compound 306, 7-Hydroxy-8-methoxy-2-(2-methoxybenzyl)-2,3,4,5-tetrahydro-1H-benzo[c]azepine], 136 to 137 °C. With `COc1cccc(CN2CCCc3cc(O)c(OC)cc3C2)c1` [compound 307, 7-Hydroxy-8-methoxy-2-(3-methoxybenzyl)-2,3,4,5-tetrahydro-1H-benzo[e]azepine], the melting point lay in the range of 114 to 115 °C. `COc1ccc(CN2CCCc3cc(O)c(OC)cc3C2)cc1` [compound 308, 7-Hydroxy-8-methoxy-2-(4-methoxybenzyl)-2,3,4,5-tetrahydro-1H-benzo[c]azepine] registered a melting point of 105 to 107 °C.

Molecule `COc1cc2c(cc1O)CCCN(Cc1cc(OC)c(OC)c(OC)c1)C2` [compound 309, 7-Hydroxy-8-methoxy-2-(3,4,5-trimethoxybenzyl)-2,3,4,5-tetrahydro-1H-benzo[c]azepine] showed a melting point of 46 to 48 °C. As to `COc1cc2c(cc1OCc1ccccc1)CCCN(Cc1cc(OC)c(OC)c(OC)c1)C2=O` [compound 314, 7-Benzyloxy-8-methoxy-2-(3,4,5-trimethoxybenzyl)-2,3,4,5-tetrahydro-1H-benzo[c]azepin-1-one], the melting point fell in the range of 134 to 135 °C.

With `COc1cc2c(cc1OCc1ccccc1)CCCC(=O)N2Cc1cc(OC)c(OC)c(OC)c1` [compound 318, 7-benzyloxy-8-methoxy-1-(3,4,5-trimethoxybenzyl)-4,5-dihydro-1H-benzo[b]azepin-2(3H)-one], the melting point is 129 to 130 °C. With `COc1cc2c(cc1O)CCCC(=O)N2Cc1cc(OC)c(OC)c(OC)c1` [compound 319, 7-Hydroxy-8-methoxy-1-(3,4,5-trimethoxybenzyl)-4,5-dihydro-1H-benzo[b]azepin-2(3H)-one], the melting point lay within 170 to 171 °C.
